The species entered for assay [1] is Oryctolagus cuniculus. Nature of the assay: Antihypercholesterolemic value for the compound was determined. The format is functional.
The nature of assay [2]: Compound was evaluated for the inhibition of J774 macrophage cell culture Acyl coenzyme A:cholesterol acyltransferase. The format is cell-based.
The test system of assay [3] is Oryctolagus cuniculus. Nature of the assay: Percent reduction in serum cholesterol was determined by the oral administration in methylcellulose vehicle at a dose of 5 mg/kg/day for 4 day. The format is functional.
Assay [4] concerns Oryctolagus cuniculus. Put plainly: Percent reduction in serum cholesterol was determined by the oral administration in methylcellulose vehicle at a dose of 2.5 mg/kg/day for 7 days. The format is functional.
The species named for assay [5] is Oryctolagus cuniculus. Put plainly: Antihypercholesterolemic value for the compound was determined in rabbits. The assay is classed as functional.

In the case of `CN(C(=O)c1ccc(C#N)cc1)[C@@H]1N(C)C(c2ccc(C#N)cc2)=NC1(C(F)(F)F)C(F)(F)F`, in the assay filed under Oryctolagus cuniculus [1], the AHV is listed as 15%. Also, the midpoint of inhibition in assay [2], the IC50, lay at 54 µM. The Reduction in the assay on Oryctolagus cuniculus [3] is listed as 12%.

The compound `CN(C(=O)c1ccc(C#N)cc1)[C@H]1N(C)C(c2ccc(C#N)cc2)=NC1(C(F)(F)F)C(F)(F)F` showed an AHV in the assay filed under Oryctolagus cuniculus [1] of 90%. The compound also registered an IC50 in assay [2] of 11 µM. In addition, in the assay with Oryctolagus cuniculus [3], the Reduction came to 75%.

With `CN(C(=O)c1ccc(C#N)cc1)C1N(C)C(c2ccc(C#N)cc2)=NC1(C(F)(F)F)C(F)(F)F` (centres undefined), the Reduction in the assay on Oryctolagus cuniculus [4] was 79%. Besides, the AHV in the assay listed under Oryctolagus cuniculus [5] was above 90%. This compound came in with an IC50 in assay [2] of 16 µM.

For orientation: IC50 means the concentration that gives 50% inhibition.

(Values after ChEMBL document CHEMBL1129011, “Novel 4,4-bis(trifluoromethyl) imidazolines as stereospecific and orally active acyl coa: Cholesterol acyltransferase (ACAT) inhibitors and antihypercholesterolemic agents” (Bioorg Med Chem Lett, 1996).)
